The values that follow come from patent US8846951B2 (AbbVie Inc., priority 2009, dated 2014).

One may read the Emax as the greatest response seen or fitted, relative to the assay's reference. In general, EC50 refers to the concentration needed to bring the measured effect to its halfway point.

Like-named read-outs stand apart in the source and are kept apart here.

The target in one assay is T1, 5HT2C receptors (Homo sapiens, UniProt P28335).
T1 sequence (P28335 33-458): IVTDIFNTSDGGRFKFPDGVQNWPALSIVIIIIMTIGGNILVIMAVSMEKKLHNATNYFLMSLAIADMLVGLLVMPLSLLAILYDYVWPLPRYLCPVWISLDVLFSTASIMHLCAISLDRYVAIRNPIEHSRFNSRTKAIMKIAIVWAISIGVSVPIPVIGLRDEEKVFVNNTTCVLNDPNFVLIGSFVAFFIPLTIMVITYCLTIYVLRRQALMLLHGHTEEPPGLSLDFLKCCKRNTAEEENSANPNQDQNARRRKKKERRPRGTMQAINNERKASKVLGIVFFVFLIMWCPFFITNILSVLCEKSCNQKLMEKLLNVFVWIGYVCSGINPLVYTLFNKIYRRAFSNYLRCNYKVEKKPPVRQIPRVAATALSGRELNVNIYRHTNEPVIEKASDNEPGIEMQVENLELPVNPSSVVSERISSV
Description: Human 5-HT2C functional high throughput screening assay in CHO-K1 cells (calcium flux). Type of assay: cell-based. More on the design: expressed in transfected cells; host or cells: CHO-K1 cells. Conditions: for Emax: CHO-K1, 5-HT2C, maximum functional response as percentage relative to the effect of serotonin; for EC50: CHO-K1 cells, calcium flux; call rule not given here. In short, it runs like this:
(§1)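 Agonism is measured as intracellular calcium increase in receptor-overexpressing CHO-K1 cells, read by FLIPR at 25 °C. Responses are expressed relative to serotonin, with EC50 and Emax derived from a 4-parameter logistic curve over 6 concentrations starting at 10 μM.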
On the technique in general: Calcium assays in cells follow changes in intracellular calcium, usually with a dye or a luminescent sensor.

In another assay the target is T2, 5HT2B receptors (Homo sapiens, UniProt P41595).
T2 construct: expressed in transfected cells; host or cells: CHO-K1 cells
The experiment in a line: Human 5-HT2B functional high throughput screening assay in CHO-K1 cells (calcium flux). Type of assay: cell-based. The following applies: for EC50: CHO-K1 cells, calcium flux. In short, it runs like this: as §1

The mark [1] stands for this setting: 5-HT2B, maximum functional response as percentage relative to the effect of serotonin.
Where [2] appears, read: 5-HT2C agonist activity, read-out: EC50.
Where [3] appears, read: 5-HT2B agonist activity, read-out: EC50.

T2 sequence (P41595 whole entry): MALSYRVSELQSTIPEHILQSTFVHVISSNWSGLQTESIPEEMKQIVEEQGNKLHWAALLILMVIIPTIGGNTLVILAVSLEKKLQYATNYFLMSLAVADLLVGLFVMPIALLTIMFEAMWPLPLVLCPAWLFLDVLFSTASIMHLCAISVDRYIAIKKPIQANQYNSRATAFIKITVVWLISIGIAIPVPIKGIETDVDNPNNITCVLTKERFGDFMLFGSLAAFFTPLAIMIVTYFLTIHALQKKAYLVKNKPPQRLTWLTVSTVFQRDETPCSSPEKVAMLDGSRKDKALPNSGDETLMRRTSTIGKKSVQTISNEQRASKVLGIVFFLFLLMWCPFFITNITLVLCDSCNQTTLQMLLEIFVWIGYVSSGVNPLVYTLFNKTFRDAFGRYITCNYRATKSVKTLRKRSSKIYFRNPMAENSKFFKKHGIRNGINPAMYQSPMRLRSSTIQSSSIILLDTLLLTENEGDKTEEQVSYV

Regarding `O=S(=O)(c1ccc(Cl)s1)N1Cc2cccnc2[C@@H]2CNC[C@H]2C1` (relative stereo) [Example 339, Trans-6-[(5-chloro-2-thienyl)sulfonyl]-5,6,7,7a,8,9,10,10a-octahydropyrido[3,2-c]pyrrolo[3,4-e]azepine], the results for the Emax on 5HT2C receptors and at 5HT2B receptors (setting [1]) were 110% and “inactive”, respectively. The EC50 at 5HT2C receptors (EC50, 5-HT2C agonist activity) is 0.03 µM; at 5HT2B receptors (EC50, 5-HT2B agonist activity) it was greater than 10 µM.
Regarding `O=S1(=O)NC[C@@H]2CNC[C@H]2c2ccccc21` (relative stereo) [Example 111, Trans-2,3,3a,4,5,10b-hexahydro-1H-pyrrolo[3,4-d][1,2]benzothiazepine 6,6-dioxide], the EC50 is 6 µM on 5HT2C receptors (setting [2]) and greater than 10 µM at 5HT2B receptors (setting [3]). The results for the Emax at 5HT2C receptors and on 5HT2B receptors (CHO-K1) were 100% and 20%, respectively.
On to `O=C1Cc2ccccc2[C@@H]2CN(Cc3ccccc3)C[C@H]2N1` (relative stereo) [Example 223, Trans-2-benzyl-1,2,3,3a,4,10b-hexahydrobenzo[d]pyrrolo[3,4-b]azepin-5(6H)-one], for which the EC50 is 5 µM on 5HT2C receptors (setting [2]) and greater than 10 µM on 5HT2B receptors (setting [3]). Besides, the figures for the Emax at 5HT2C receptors (read-out: Emax) and on 5HT2B receptors (setting [1]) were 60% and “inactive”, respectively.
In the case of `CN1C[C@H]2CNC(=O)c3cc(-c4cccc(OC(F)(F)F)c4)ccc3[C@@H]2C1` (relative stereo) [Example 132, Trans-2-methyl-8-(3-(trifluoromethoxy)phenyl)-1,2,3,3a,4,5-hexahydrobenzo[e]pyrrolo[3,4-c]azepin-6(10bH)-one], the EC50 at 5HT2C receptors (setting [2]) is 0.02 µM; on 5HT2B receptors (setting [3]), greater than 10 µM. Also, the Emax on 5HT2C receptors (read-out: Emax) is greater than 120%; at 5HT2B receptors (setting [1]) it was “inactive”.
`Cc1ccccc1S(=O)(=O)N1Cc2cccnc2[C@@H]2CNC[C@H]2C1` (relative stereo) [Example 341, Trans-6-[(2-methylphenyl)sulfonyl]-5,6,7,7a,8,9,10,10a-octahydropyrido[3,2-c]pyrrolo[3,4-e]azepine]: the Emax at 5HT2C receptors was 90%; at 5HT2B receptors (CHO-K1), 65%. Besides, the EC50 was determined as 0.09 µM on 5HT2C receptors (EC50, 5-HT2C agonist activity) and 0.3 µM at 5HT2B receptors (EC50, 5-HT2B agonist activity).
With `CN1C[C@@H]2CCCc3ccccc3[C@@H]2C1` (relative stereo) [Example 269, Cis-2-methyl-1,2,3,3a,4,5,6,10b-octahydrobenzo[3,4]cyclohepta[1,2-c]pyrrole], the Emax is greater than 120% on 5HT2C receptors and 50% on 5HT2B receptors (CHO-K1). The EC50 at 5HT2C receptors (EC50, 5-HT2C agonist activity) amounted to 0.1 µM; on 5HT2B receptors (EC50, 5-HT2B agonist activity), 0.8 µM.
Regarding `C[C@@H](O)c1cccc(-c2ccc3c(c2)C(=O)NC[C@H]2CN(C)C[C@H]32)c1` [Example 249, (3aS,10bS)-8-(3-((R)-1-Hydroxyethyl)phenyl)-2-methyl-1,2,3,3a,4,5-hexahydrobenzo[e]pyrrolo[3,4-c]azepin-6(10bH)-one], the EC50 at 5HT2C receptors (setting [2]) is 0.002 µM; at 5HT2B receptors (setting [3]) it was greater than 10 µM. The Emax was 100% on 5HT2C receptors (read-out: Emax) and “inactive” at 5HT2B receptors (setting [1]).
The like results for `Nc1ccc2c(c1)C(=O)NC[C@@H]1CN(Cc3ccccc3)C[C@@H]21` (relative stereo) [Example 141, Trans-8-amino-2-benzyl-1,2,3,3a,4,5-hexahydrobenzo[e]pyrrolo[3,4-c]azepin-6(10bH)-one] were, in that order, 0.6 µM, greater than 10 µM, greater than 120% and “inactive”.
With `c1ccc2c(c1)NCC[C@@H]1CNC[C@@H]21` (relative stereo) [Example 389, Trans-1,2,3,3a,4,5,6,10b-octahydropyrrolo[3,4-d][1]benzazepine], the figures for the EC50 on 5HT2C receptors (setting [2]) and at 5HT2B receptors (setting [3]) were 0.9 µM and 0.4 µM, respectively. In addition, the Emax is 95% on 5HT2C receptors and 70% on 5HT2B receptors (CHO-K1).
As for `Fc1ccc2c(c1)OCC[C@H]1CN(Cc3ccccc3)C[C@H]21` (relative stereo) [Example 107, Trans-2-benzyl-8-fluoro-2,3,3a,4,5,10b-hexahydro-1H-[1]benzoxepino[4,5-c]pyrrole], the Emax at 5HT2C receptors worked out at 110%; at 5HT2B receptors (CHO-K1) it was 15%. Moreover, the EC50 on 5HT2C receptors (EC50, 5-HT2C agonist activity) is 0.09 µM; on 5HT2B receptors (EC50, 5-HT2B agonist activity) it was 0.7 µM.
Regarding `c1cnc2c(c1)[C@@H]1CNC[C@H]1CCO2` (relative stereo) [Example 264, Trans-2,3,3a,4,5,10b-hexahydro-1H-pyrrolo[3′,4′:4,5]oxepino[2,3-b]pyridine], the values for the EC50 at 5HT2C receptors (setting [2]) and on 5HT2B receptors (setting [3]) were 1 µM and 3 µM, respectively. Moreover, the Emax is greater than 120% at 5HT2C receptors and 20% on 5HT2B receptors (CHO-K1).
Regarding `Clc1cccc2c1OCC[C@H]1CNC[C@H]21` (relative stereo) [Example 376, Trans-7-chloro-2,3,3a,4,5,10b-hexahydro-1H-[1]benzoxepino[4,5-c]pyrrole], the Emax on 5HT2C receptors was 90%; at 5HT2B receptors (CHO-K1), 70%. Besides, the EC50 at 5HT2C receptors (EC50, 5-HT2C agonist activity) came to 0.0002 µM; at 5HT2B receptors (EC50, 5-HT2B agonist activity) it was 0.2 µM.
As to `CN1C[C@H]2CNC(=O)c3cc(C(=O)Nc4ccccc4)ccc3[C@@H]2C1` (relative stereo) [Example 128, Trans-2-methyl-6-oxo-N-phenyl-1,2,3,3a,4,5,6,10b-octahydrobenzo[e]pyrrolo[3,4-c]azepine-8-carboxamide], the EC50 was 2 µM on 5HT2C receptors (setting [2]) and greater than 10 µM at 5HT2B receptors (setting [3]). For the same compound, the Emax is 50% on 5HT2C receptors (read-out: Emax) and “inactive” on 5HT2B receptors (setting [1]).
Regarding `CN1C[C@@H]2CN(C)C(=O)c3cc(F)ccc3[C@H]2C1` [Example 163, (3aR,10bS)-8-Fluoro-2,5-dimethyl-1,2,3,3a,4,5-hexahydrobenzo[e]pyrrolo[3,4-c]azepin-6(10bH)-one], the Emax at 5HT2C receptors was greater than 120%; at 5HT2B receptors (CHO-K1), 20%. In addition, the EC50 at 5HT2C receptors (EC50, 5-HT2C agonist activity) was 0.06 µM; at 5HT2B receptors (EC50, 5-HT2B agonist activity) it was 0.8 µM.
On to `O=S(=O)(c1cccc(OC(F)(F)F)c1)N1Cc2cccnc2[C@@H]2CNC[C@H]2C1` (relative stereo) [Example 366, Trans-6-{[3-(trifluoromethoxy)phenyl]sulfonyl}-5,6,7,7a,8,9,10,10a-octahydropyrido[3,2-c]pyrrolo[3,4-e]azepine], for which the values for the EC50 at 5HT2C receptors (setting [2]) and at 5HT2B receptors (setting [3]) were 0.1 µM and 0.2 µM, respectively. Moreover, the Emax at 5HT2C receptors (read-out: Emax) was determined as 85%; at 5HT2B receptors (CHO-K1, 5-HT2B, maximum functional response as percentage relative to the effect of serotonin, read-out: Emax), 85%.
For the compound `CN1C[C@H]2CNC(=O)c3cc(C(=O)N4CCCCC4)ccc3[C@@H]2C1` (relative stereo) [Example 122, Trans-2-methyl-8-(piperidine-1-carbonyl)-1,2,3,3a,4,5-hexahydrobenzo[e]pyrrolo[3,4-c]azepin-6(10bH)-one], the EC50 on 5HT2C receptors (setting [2]) was 6 µM; at 5HT2B receptors (setting [3]), greater than 10 µM. Besides, the Emax is 100% at 5HT2C receptors (read-out: Emax) and “inactive” at 5HT2B receptors (setting [1]).
Turning to `CN1C[C@H]2CNC(=O)c3c(OC(F)(F)F)cccc3[C@@H]2C1` (relative stereo) [Example 110, Trans-2-methyl-7-(trifluoromethoxy)-1,2,3,3a,4,5-hexahydrobenzo[c]pyrrolo[3,4-e]azepin-6(10bH)-one], the results for the Emax on 5HT2C receptors and at 5HT2B receptors (CHO-K1) were greater than 120% and 15%, respectively. Also, the EC50 on 5HT2B receptors (EC50, 5-HT2B agonist activity) is 0.9 µM.
With `CN1C[C@H]2CNC(=O)c3cc(C(=O)NCCc4ccccc4)ccc3[C@@H]2C1` (relative stereo) [Example 126, Trans-2-methyl-6-oxo-N-phenethyl-1,2,3,3a,4,5,6,10b-octahydrobenzo[e]pyrrolo[3,4-c]azepine-8-carboxamide], the 50% effective concentration (EC50) on 5HT2C receptors (setting [2]) was 6 µM; at 5HT2B receptors (setting [3]) it was greater than 10 µM. For the same compound, the values for the Emax at 5HT2C receptors (read-out: Emax) and at 5HT2B receptors (setting [1]) were 60% and “inactive”, respectively.
The like results for `Fc1ccc(-c2cccc3c2NCC[C@@H]2CNC[C@@H]32)cc1` (relative stereo) [Example 401, Trans-7-(4-fluorophenyl)-1,2,3,3a,4,5,6,10b-octahydropyrrolo[3,4-d][1]benzazepine] were, in that order, 0.8 µM, greater than 10 µM, 70% and “inactive”.
The like results for `O=C1NC[C@@H]2CNC[C@H]2c2ccc(OCc3c(F)cccc3F)cc21` (relative stereo) [Example 168, Trans-8-(2,6-difluorobenzyloxy)-1,2,3,3a,4,5-hexahydrobenzo[e]pyrrolo[3,4-c]azepin-6(10bH)-one] were, in that order, 0.001 µM, greater than 10 µM, greater than 120% and “inactive”.
On to `Cc1noc(C)c1-c1ccc2c(c1)C(=O)NC[C@@H]1CNC[C@@H]21` (single isomer, unassigned) [Example 245, Trans-8-(3,5-dimethylisoxazol-4-yl)-1,2,3,3a,4,5-hexahydrobenzo[e]pyrrolo[3,4-c]azepin-6(10bH)-one], for which the Emax at 5HT2C receptors is 100%; at 5HT2B receptors (CHO-K1), 15%. For the same compound, the EC50 on 5HT2C receptors (EC50, 5-HT2C agonist activity) was found to be 0.05 µM; at 5HT2B receptors (EC50, 5-HT2B agonist activity), 2 µM.
